Test results published in patent publication US8278313B2, “Macrocyclic spiro pyrimidine derivatives” (Abbott Laboratories, priority 2008, dated 2012).

Key:
histamine H4 receptor [1] = target: T1, histamine H4 receptor (Homo sapiens, UniProt Q9H3N8); test: [3H]-histamine competition binding assay, membranes of HEK-293 cells transiently transfected with histamine H4 receptor; conditions: Ki by Cheng-Prusoff equation; HEK-293 membranes, 25° C., 1 hour, pH 7.4; read-out: Potency (nM), displacement of 3H-histamine
T1 construct: expressed in transfected cells
Protocol: In this assay, membranes were prepared from HEK-293 cells transiently transfected with the pCINeo expression vector harboring the histamine H4 receptor by homogenization of the cells on ice in TE buffer (50 mM Tris-HCl buffer, pH 7.4, containing 5 mM EDTA), 1 mM benzamidine, 2 μg/ml aprotinin, […] leupeptin, and 1 μg/ml pepstatin. The homogenate was centrifuged at 40,000 g for 20 minutes at 4° C. This step was repeated, and the resulting pellet was resuspended in TE buffer. Aliquots were frozen at −70° C. until needed. On the day of assay, membranes were thawed and diluted with TE buffer. Competition radioligand binding assays were performed with increasing concentrations of test compound in the presence of [^3H]-histamine incubated at 25° C. for 1 hour in a total volume of 0.5 mL of 50 mM Tris, 5 mM EDTA, pH 7.4. All binding reactions were terminated by filtration under vacuum onto polyethylenimine (0.3%) presoaked Unifilters (PerkinElmer Life Sciences) or Whatman GF/B filters (Whatman, Clifton, N.J.), followed by three brief washes with 4 ml of ice-cold TE buffer. Bound radiolabel was determined by liquid scintillation counting. For all of the radioligand competition binding assays, IC50 values and Hill slopes were determined by Hill transformation of the data, and Ki values were determined by the Cheng-Prusoff equation.

histamine H4 receptor [2] = target: T1, histamine H4 receptor; test: In vitro histamine H4 potency in FLIPR (Ca2+ flux, Fluo-4) in HEK-293 cells coexpressing Gαqi5; type: cell-based; conditions: Kb values for antagonists and inverse agonists, EC50 values for partial agonists; HEK-293 cells with Gαqi5, Fluo-4
Excerpt: There are many methods available to show the effectiveness of compounds as histamine H4 receptor ligands. Histamine H4 receptors from mammalian species have been cloned. Methods to clone, express, and assess the potency and functional activity of such cloned genes are well known to those skilled in the art of molecular biology. […] Before testing, cells are loaded with a Ca^+2 sensitive fluorescent dye, in this case Fluo-4. In the case of partial agonist or agonist ligands, addition of compound to the cells leads to the increase in intracellular Ca^+2, which is detected by FLIPR (Fluorescence Imaging Plate Reader; Molecular Devices, Sunnyvale, Calif.) technology. […] The fluorescence intensities measured before addition of the test compound are subtracted from the fluorescence intensities at later time points. Peak response values determined at each concentration of ligand are expressed as a percentage of the response obtained with the full agonist histamine. Concentration versus response data are analyzed to obtain compound potency as Kb values for antagonists and inverse agonists and as EC50 values for partial agonists.

Ki (histamine H4 receptor [1]) [nM]	Potency (nM), in vitro histamine H4 potency in FLIPR (histamine H4 receptor [2]) [nM]	SMILES
1.1	2.8	Nc1nc(N2CCNCC2)c2c(n1)C1(CCCC1)CCC2 [Example 2, 4′-(piperazin-1-yl)-6′,7′-dihydro-5′H-spiro[cyclopentane-1,8′-quinazolin]-2′-amine]
4.6	2.7	Nc1nc(N2CC[C@@H](N)C2)c2c(n1)C1(CCCC1)CCC2 [Example 4, (R)-4′-(3-aminopyrrolidin-1-yl)-6′,7′-dihydro-5′H-spiro[cyclopentane-1,8′-quinazolin]-2′-amine]
–	53	Nc1nc(N2CC[C@H](N)C2)c2c(n1)C1(CCCC1)CCC2 [Example 5, (S)-4′-(3-aminopyrrolidin-1-yl)-6′,7′-dihydro-5′H-spiro[cyclopentane-1,8′-quinazolin]-2′-amine]
2.8	9.8	Nc1nc(N2CCCNCC2)c2c(n1)C1(CCCC1)CCC2 [Example 8, 4′-(1,4-diazepan-1-yl)-6′,7′-dihydro-5′H-spiro[cyclopentane-1,8′-quinazolin]-2′-amine]
–	22	CN1CCC(Nc2nc(N)nc3c2CCCC32CCCC2)CC1 [Example 10, N4′-(1-methylpiperidin-4-yl)-6′,7′-dihydro-5′H-spiro[cyclopentane-1,8′-quinazoline]-2′,4′-diamine]
–	12624	COC(=O)C1(N)CCN(c2nc(N)nc3c2CCCC32CCCC2)CC1 [Example 11, Methyl 4-amino-1-(2′-amino-6′,7′-dihydro-5′H-spiro[cyclopentane-1,8′-quinazoline]-4′-yl)piperidine-4-carboxylate]
–	21251	Nc1nc(N2CCC(N)(C(=O)O)CC2)c2c(n1)C1(CCCC1)CCC2 [Example 12, 4-amino-1-(2′-amino-6′,7′-dihydro-5′H-spiro[cyclopentane-1,8′-quinazoline]-4′-yl)piperidine-4-carboxylic Acid]
–	68851	Nc1nc(N2CC(N)C2)c2c(n1)C1(CCCC1)CCC2 [Example 13, 4′-(3-aminoazetidin-1-yl)-6′,7′-dihydro-5′H-spiro[cyclopentane-1,8′-quinazolin]-2′-amine]
–	7.8	CN(C)CCOc1nc(N)nc2c1CCCC21CCCC1 [Example 14, 4′-(2-(dimethylamino)ethoxy)-6′,7′-dihydro-5′H-spiro[cyclopentane-1,8′-quinazolin]-2′-amine]
–	20	CN1CC[C@@H](Oc2nc(N)nc3c2CCCC32CCCC2)C1 [Example 15, (R)-4′-(1-methylpyrrolidin-3-yloxy)-6′,7′-dihydro-5′H-spiro[cyclopentane-1,8′-quinazolin]-2′-amine]
9.3	48	Nc1nc(N2CCNCC2)c2c(n1)C1(CCCCC1)CCCC2 [Example 16, 4-(piperazin-1-yl)-5,6,7,8-tetrahydrospiro[cyclohepta[d]pyrimidine-9,1′-cyclohexan]-2-amine]
18	47	Nc1nc(N2CC[C@@H](N)C2)c2c(n1)C1(CCCCC1)CCCC2 [Example 17, (R)-4-(3-aminopyrrolidin-1-yl)-5,6,7,8-tetrahydrospiro[cyclohepta[d]pyrimidine-9,1′-cyclohexan]-2-amine]
–	99	Nc1nc(N2C[C@H]3CCCN[C@H]3C2)c2c(n1)C1(CCCCC1)CCCC2 [Example 18, 4-((4aR,7aR)-tetrahydro-1H-pyrrolo[3,4-b]pyridin-6(2H,7H,7aH)-yl)-5,6,7,8-tetrahydrospiro[cyclohepta[d]pyrimidine-9,1′-cyclohexan]-2-amine]
–	26915	Nc1nc(N2CCNCC2)c2c(n1)C1(CCCC2)Cc2ccccc2C1 [Example 19, 4-(piperazin-1-yl)-1′,3′,5,6,7,8-hexahydrospiro[cyclohepta[d]pyrimidine-9,2′-inden]-2-amine]
–	499	Nc1nc(N2CC[C@@H](N)C2)c2c(n1)C1(CCCC2)Cc2ccccc2C1 [Example 20, (R)-4-(3-aminopyrrolidin-1-yl)-1′,3′,5,6,7,8-hexahydrospiro[cyclohepta[d]pyrimidine-9,2′-inden]-2-amine]

SMILES	Ki (histamine H4 receptor [1]) [nM]	Potency (nM), in vitro histamine H4 potency in FLIPR (histamine H4 receptor [2]) [nM]
CN[C@@H]1CCN(c2nc(N)nc3c2CCCC32CCCC2)C1 [Example 1, (R)-4′-(3-(methylamino)pyrrolidin-1-yl)-6′,7′-dihydro-5′H-spiro[cyclopentane-1,8′-quinazolin]-2′-amine]	2.6	2.9
CNC1CN(c2nc(N)nc3c2CCCC32CCCC2)C1 [Example 3, 4′-(3-(methylamino)azetidin-1-yl)-6′,7′-dihydro-5′H-spiro[cyclopentane-1,8′-quinazolin]-2′-amine]	1.4	4.6
Nc1nc(N2CC[C@@H]3CNC[C@@H]32)c2c(n1)C1(CCCC1)CCC2 [Example 6, 4′-((3aR,6aR)-hexahydropyrrolo[3,4-b]pyrrol-1(2H)-yl)-6′,7′-dihydro-5′H-spiro[cyclopentane-1,8′-quinazolin]-2′-amine]	–	1097
Nc1nc(N2CC[C@H]3CNC[C@H]32)c2c(n1)C1(CCCC1)CCC2 [Example 7, 4′-((3aS,6aS)-hexahydropyrrolo[3,4-b]pyrrol-1(2H)-yl)-6′,7′-dihydro-5′H-spiro[cyclopentane-1,8′-quinazolin]-2′-amine]	–	1027
Nc1nc(N2C[C@H]3CCCN[C@H]3C2)c2c(n1)C1(CCCC1)CCC2 [Example 9, 4′-((4aR,7aR)-tetrahydro-1H-pyrrolo[3,4-b]pyridin-6(2H,7H,7aH)-yl)-6′,7′-dihydro-5′H-spiro[cyclopentane-1,8′-quinazolin]-2′-amine]	3.4	8.5
